Source: patent US9328324B2, “System, method and devices for tissue-based diagnosis” (The Regents of the University of California, priority 2009, dated 2016)

Assay: Preservation of bioactivity of solubilized tissue constituents under ultrasonic energy exposure
Details: 1% w/v in LPM

preservation of bioactivity of solubilized proteins and nucleic acids | Compound
complete preservation | CCCCCCCCCCCCOCCOCCOCCOCCO [Brij 30, polyethylene glycol dodecyl ether]
complete preservation | CCCCCCCCCC[N+](C)(C)CCCS(=O)(=O)[O-] [DPS, 3-(decyldimethylammonio) propane sulfonate]
complete preservation | CCCCCCCCCCCC(=O)N(C)CC(=O)O [NLS, N-lauroyl sarcosine]
